US4605614A, “Method for measuring plasmin” (Nitto Boseki Co., Ltd., priority 1981, dated 1986)

Columns and labels:
[1] = target: Urokinase (UK) (Homo sapiens, UniProt P00749); type: biochemical; details: TABLE 4, CHA substrates; So = 0.54; pH 8.2; 37° C., 10 minutes; 1000 IU/ml
[2] = target: Thrombin (TH) (Bos taurus, UniProt P00735); type: biochemical, Cow; details: TABLE 4, CHA substrates; So = 0.54; pH 8.4; 37° C., 10 minutes; 1.0 NIH/ml
[3] = target: Kallikrein (KL) (Sus scrofa, UniProt P00752); type: biochemical, Pig; details: TABLE 4, CHA substrates; So = 0.54; pH 7.9; 37° C., 10 minutes; 1.0 BAEE-U/ml
Kallikrein (KL), sequence (P00752 8-246): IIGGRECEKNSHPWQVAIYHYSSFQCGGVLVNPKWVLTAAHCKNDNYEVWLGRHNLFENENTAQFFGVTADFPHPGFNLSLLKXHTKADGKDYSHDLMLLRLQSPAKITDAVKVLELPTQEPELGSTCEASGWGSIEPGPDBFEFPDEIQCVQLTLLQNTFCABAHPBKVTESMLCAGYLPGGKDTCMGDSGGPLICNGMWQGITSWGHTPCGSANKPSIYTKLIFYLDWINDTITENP

[4] = target: Plasmin (PL) (Sus scrofa, UniProt P06867); type: biochemical, Pig; details: TABLE 4, CHA substrates; So = 0.54; pH 7.4; 37° C., 10 minutes; 0.32 CU/ml
Plasmin (PL), sequence (P06867 97-809): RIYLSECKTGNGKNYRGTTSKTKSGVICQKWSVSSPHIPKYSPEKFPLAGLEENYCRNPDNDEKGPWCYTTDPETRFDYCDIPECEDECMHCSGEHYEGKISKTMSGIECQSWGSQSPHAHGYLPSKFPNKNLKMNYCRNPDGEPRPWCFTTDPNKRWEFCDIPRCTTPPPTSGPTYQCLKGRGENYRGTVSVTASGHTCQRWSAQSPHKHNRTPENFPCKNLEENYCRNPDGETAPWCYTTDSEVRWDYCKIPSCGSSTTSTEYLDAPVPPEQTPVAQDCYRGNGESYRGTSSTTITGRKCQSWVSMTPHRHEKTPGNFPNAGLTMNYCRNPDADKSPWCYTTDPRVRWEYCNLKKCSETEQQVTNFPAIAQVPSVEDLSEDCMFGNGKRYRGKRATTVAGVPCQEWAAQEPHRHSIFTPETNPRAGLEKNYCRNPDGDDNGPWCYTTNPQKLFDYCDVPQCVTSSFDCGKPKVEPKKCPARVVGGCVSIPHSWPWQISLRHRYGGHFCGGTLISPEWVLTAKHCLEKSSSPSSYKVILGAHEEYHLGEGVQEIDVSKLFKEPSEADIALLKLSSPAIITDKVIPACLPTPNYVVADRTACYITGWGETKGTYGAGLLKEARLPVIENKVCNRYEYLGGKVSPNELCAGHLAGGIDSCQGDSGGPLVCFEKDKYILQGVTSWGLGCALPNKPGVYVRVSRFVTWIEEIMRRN

[5] = target: plasmin (pig) (Sus scrofa, UniProt P06867); test: Km, Vmax and Vmax/Km of substrates for plasmin (pig); type: biochemical, Porcine (pig); details: for Vmax (× 10^-7): TABLE 2, CHA substrates, plasmin (pig), 2,6-xylenol 615 nm; for Relative ratio: TABLE 2, V/Km of each sample divided by that of S2251 (so in the source)
plasmin (pig), sequence (P06867 97-809): as above

[6] = target: Factor-Xa (FXa) (Bos taurus, UniProt P00743); type: biochemical, Cow; details: TABLE 4, CHA substrates; So = 0.54; pH 8.4; 37° C., 10 minutes; 0.4 U/ml
Factor-Xa (FXa), sequence (P00743 41-180): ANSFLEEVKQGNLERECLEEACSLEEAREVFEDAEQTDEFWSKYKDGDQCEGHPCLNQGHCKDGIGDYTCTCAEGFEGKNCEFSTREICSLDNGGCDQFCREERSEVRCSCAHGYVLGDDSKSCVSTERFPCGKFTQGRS
Factor-Xa (FXa), sequence (P00743 234-492): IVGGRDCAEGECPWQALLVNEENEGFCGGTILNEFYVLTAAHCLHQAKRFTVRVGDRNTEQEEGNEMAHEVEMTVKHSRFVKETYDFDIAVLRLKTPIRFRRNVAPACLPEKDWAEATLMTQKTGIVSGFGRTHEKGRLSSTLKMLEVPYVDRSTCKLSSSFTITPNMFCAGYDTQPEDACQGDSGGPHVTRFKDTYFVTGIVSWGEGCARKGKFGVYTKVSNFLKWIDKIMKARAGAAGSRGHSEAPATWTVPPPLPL

Thrombin (TH), sequence (P00735 44-625): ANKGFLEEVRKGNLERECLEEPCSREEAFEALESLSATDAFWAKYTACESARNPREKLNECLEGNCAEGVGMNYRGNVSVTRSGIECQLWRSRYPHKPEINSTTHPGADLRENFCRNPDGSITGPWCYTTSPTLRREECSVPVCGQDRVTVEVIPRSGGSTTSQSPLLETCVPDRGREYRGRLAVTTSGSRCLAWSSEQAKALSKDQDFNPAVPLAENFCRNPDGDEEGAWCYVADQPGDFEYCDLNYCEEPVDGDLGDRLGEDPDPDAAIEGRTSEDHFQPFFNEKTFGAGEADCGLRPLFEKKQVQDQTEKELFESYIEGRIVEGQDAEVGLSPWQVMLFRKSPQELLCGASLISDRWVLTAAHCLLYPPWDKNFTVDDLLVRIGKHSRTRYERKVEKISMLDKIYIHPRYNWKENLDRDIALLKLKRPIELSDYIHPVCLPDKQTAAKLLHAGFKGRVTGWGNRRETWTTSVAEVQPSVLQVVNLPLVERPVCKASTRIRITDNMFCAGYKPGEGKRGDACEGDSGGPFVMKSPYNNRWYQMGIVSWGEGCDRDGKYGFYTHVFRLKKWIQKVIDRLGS

For `Cc1cc(C)c(S(=O)(=O)NCCCC[C@@H](N)C(=O)N[C@@H](Cc2ccccc2)C(=O)N[C@@H](CCCCN)C(=O)Nc2ccc(O)c(C(=O)O)c2)c(C)c1` [NPC-10, HD-Lys(Mst)PheLysCHA.2HCl], the “Selectivity UK, absorbance (O.D.) at 645 nm” value (“Selectivity UK, absorbance” below) [1] was 0.001 O.D, the “Selectivity TH, absorbance (O.D.) at 645 nm” value (“Selectivity TH, absorbance” below) [2] was 0 O.D and the “Selectivity KL, absorbance (O.D.) at 645 nm” value (“Selectivity KL, absorbance” below) [3] was 0.010 O.D. The “Selectivity PL, absorbance (O.D.) at 645 nm” value (“Selectivity PL, absorbance” below) [4] was 0.344 O.D, the “Vmax (× 10^-7)” value [5] was 28.445 × 10^-7 and the Relative ratio [5] was 94.369. The “Selectivity FXa, absorbance (O.D.) at 645 nm” value (“Selectivity FXa, absorbance” below) [6] was 0.002 O.D.
For `Cc1ccc(S(=O)(=O)Oc2ccc(C[C@@H](N)C(=O)N[C@@H](Cc3ccccc3)C(=O)N[C@@H](CCCCN)C(=O)Nc3ccc(O)c(C(=O)O)c3)cc2)cc1` [NPC-11, HD-Tyr(Tos)PheLysCHA.2HCl], the “Selectivity UK, absorbance” value [1] was 0.003 O.D, the “Selectivity TH, absorbance” value [2] was 0.001 O.D and the “Selectivity KL, absorbance” value [3] was 0.012 O.D. For the same compound, the “Selectivity PL, absorbance” value [4] was 0.277 O.D, the “Vmax (× 10^-7)” value [5] was 17.018 × 10^-7 and the Relative ratio [5] was 99.532. The “Selectivity FXa, absorbance” value [6] was 0.003 O.D.
In the case of `Cc1ccc(S(=O)(=O)NCCCC[C@@H](N)C(=O)N[C@@H](CC(C)C)C(=O)N[C@@H](CCCCN)C(=O)Nc2ccc(O)c(C(=O)O)c2)cc1` [NPC-12, HD-Lys(Tos)LeuLysCHA.2HBr], the “Selectivity UK, absorbance” value [1] is reported as 0.001 O.D, the “Selectivity TH, absorbance” value [2] is reported as 0.001 O.D and the “Selectivity KL, absorbance” value [3] is reported as 0.007 O.D. For the same compound, the “Selectivity PL, absorbance” value [4] was 0.051 O.D, the “Vmax (× 10^-7)” value [5] was 25.679 × 10^-7 and the Relative ratio [5] was 23.135. The “Selectivity FXa, absorbance” value [6] was 0.002 O.D.
With `Cc1ccc(S(=O)(=O)Oc2ccc(C[C@@H](N)C(=O)N[C@@H](CC(C)C)C(=O)N[C@@H](CCCCN)C(=O)Nc3ccc(O)c(C(=O)O)c3)cc2)cc1` [NPC-13, HD-Tyr(Tos)LeuLysCHA.2HCl] the “Selectivity UK, absorbance” value [1] was 0.001 O.D, the “Selectivity TH, absorbance” value [2] was 0.002 O.D and the “Selectivity KL, absorbance” value [3] was 0.004 O.D. For the same compound, the “Selectivity PL, absorbance” value [4] was 0.041 O.D, the “Vmax (× 10^-7)” value [5] was 17.991 × 10^-7 and the Relative ratio [5] was 11.225. The “Selectivity FXa, absorbance” value [6] was 0.001 O.D.
`NCCCC[C@H](NC(=O)[C@H](Cc1ccccc1)NC(=O)[C@H](N)CCCCNC(=O)c1ccccc1)C(=O)Nc1ccc(O)c(C(=O)O)c1` [NPC-14] was tested, and the “Selectivity UK, absorbance” value [1] was 0.001 O.D, the “Selectivity TH, absorbance” value [2] was 0 O.D and the “Selectivity KL, absorbance” value [3] was 0.016 O.D. For the same compound, the “Selectivity PL, absorbance” value [4] was 0.417 O.D, the “Vmax (× 10^-7)” value [5] was 33.794 × 10^-7 and the Relative ratio [5] was 91.036. For the same compound, the “Selectivity FXa, absorbance” value [6] was 0.002 O.D.
`NCCCC[C@H](NC(=O)[C@H](Cc1ccccc1)NC(=O)[C@H](N)CCCCNS(=O)(=O)c1ccccc1)C(=O)Nc1ccc(O)c(C(=O)O)c1` [NPC-15] was tested, and the “Selectivity UK, absorbance” value [1] was 0 O.D, the “Selectivity TH, absorbance” value [2] was 0 O.D and the “Selectivity KL, absorbance” value [3] was 0.010 O.D. The “Selectivity PL, absorbance” value [4] was 0.480 O.D, the “Vmax (× 10^-7)” value [5] was 37.927 × 10^-7 and the Relative ratio [5] was 64.180. The “Selectivity FXa, absorbance” value [6] was 0.002 O.D.
For `NCCCC[C@H](NC(=O)[C@H](Cc1ccccc1)NC(=O)[C@H](N)CCCCNC(=O)Cc1ccccc1)C(=O)Nc1ccc(O)c(C(=O)O)c1` [NPC-16], the “Selectivity UK, absorbance” value [1] was 0.001 O.D, the “Selectivity TH, absorbance” value [2] was 0 O.D and the “Selectivity KL, absorbance” value [3] was 0.012 O.D. The “Selectivity PL, absorbance” value [4] was 0.325 O.D, the “Vmax (× 10^-7)” value [5] was 26.986 × 10^-7 and the Relative ratio [5] was 68.162. The “Selectivity FXa, absorbance” value [6] was 0.002 O.D.
For `NCCCC[C@H](NC(=O)[C@H](Cc1ccccc1)NC(=O)[C@H](N)CCCCNS(=O)(=O)c1cccc2ccccc12)C(=O)Nc1ccc(O)c(C(=O)O)c1` [NPC-17], the “Selectivity UK, absorbance” value [1] was 0 O.D, the “Selectivity TH, absorbance” value [2] was 0 O.D and the “Selectivity KL, absorbance” value [3] was 0.002 O.D. The “Selectivity PL, absorbance” value [4] was 0.192 O.D, the “Vmax (× 10^-7)” value [5] was 15.803 × 10^-7 and the Relative ratio [5] was 23.874. The “Selectivity FXa, absorbance” value [6] was 0 O.D.
`Cc1ccc(S(=O)(=O)NCCC[C@@H](N)C(=O)N[C@@H](Cc2ccccc2)C(=O)N[C@@H](CCCCN)C(=O)Nc2ccc(O)c(C(=O)O)c2)cc1` [NPC-18] was tested, and the “Selectivity UK, absorbance” value [1] was 0.001 O.D, the “Selectivity TH, absorbance” value [2] was 0 O.D and the “Selectivity KL, absorbance” value [3] was 0.019 O.D. The “Selectivity PL, absorbance” value [4] was 0.392 O.D, the “Vmax (× 10^-7)” value [5] was 35.252 × 10^-7 and the Relative ratio [5] was 58.558. The “Selectivity FXa, absorbance” value [6] was 0.002 O.D.
